Assay results published in patent publication US20250059172A1, “INDAZOLE COMPOUND AND PHARMACEUTICAL” (NIPPON SHINYAKU CO., LTD., priority 2021, published 2025).
Where a name gives a salt, the structure may show the parent alone.

Tests used:
[1] = target: human mPGES-1 (Homo sapiens (Human), UniProt O14684); assay: mPGES-1 inhibitory activity test; format: biochemical; conditions: for inhibition at 0.01 µM: 10 nM test compound; for inhibition at 0.1 µM: 100 nM test compound; for IC50: microsomes of CHO-K1 cells expressing human mPGES-1, PGH2 1 μM, PGE2 by HTRF, read-out: mPGES-1 inhibition (IC50 nM)
Chain of human mPGES-1 (O14684 whole entry): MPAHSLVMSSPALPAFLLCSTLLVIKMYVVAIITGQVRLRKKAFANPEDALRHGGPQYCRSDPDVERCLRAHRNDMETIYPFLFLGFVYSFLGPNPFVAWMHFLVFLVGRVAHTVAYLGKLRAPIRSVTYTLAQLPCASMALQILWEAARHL
Method in brief: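 PGE2 formation was quantified by HTRF and reported as percent inhibition at 10 and 100 nM compound or as IC50. The 60-second reaction at 4° C used 1 μM PGH2, after a 20-minute 4° C preincubation of compound (1% DMSO final) with glutathione-supplemented (2.5 mM, pH 7.4) microsomes. The microsomes were from transiently transfected CHO-K1 cells expressing human mPGES-1.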

[2] = system: human A549 cells; assay: Inhibition test of PGE2 production using human A549 cells; format: cell-based; conditions: IL-1β stimulated A549 cells, 24 h, PGE2 by HTRF, read-out: A549 cell inhibition of PGE2 production IC50
Method in brief: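 A549 cells were preincubated 60 min with compound in RPMI/3% FBS (0.1% DMSO final), then stimulated with IL-1β (5 ng/well) for 24 h at 37°C. PGE2 was measured by HTRF and PGF2a by EIA; activity was normalized to stimulated minus unstimulated controls, and IC50 derived.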

Compound	inhibition at 0.01 µM [1] [%]	inhibition at 0.1 µM [1] [%]	IC50 [2] [nM]	IC50 [1] [nM]
O=C(Nc1cccc2c1cnn2-c1cccc(C(F)(F)F)c1)c1cc(CNC(=O)C2CCCC2)ccc1Cl [Example 219, 2-Chloro-5-{[(cyclopentylcarbonyl)amino]methyl}-N-{1-[3-(trifluoromethyl)phenyl]-1H-indazol-4-yl}benzamide]	74	93	1	
O=C(Nc1cccc2c1cnn2-c1cccc(OC(F)F)c1)c1cc(CNC(=O)C2(O)CC2)ccc1Cl [Example 141, 2-Chloro-N-{1-[3-(difluoromethoxy)phenyl]-1H-indazol-4-yl}-5-({[(1-hydroxycyclopropyl)carbonyl]amino}methyl)benzamide]	54	100	59.4	
Cc1cc(-n2ncc3c(NC(=O)c4cc(CNC(=O)C5CCCC5)ccc4Cl)cccc32)cc(C)n1 [Example 278, 2-Chloro-5-{[(cyclopentylcarbonyl)amino]methyl}-N-[1-(2,6-dimethylpyridin-4-yl)-1H-indazol-4-yl]benzamide]	72	90	3.1	
CC(C)(C)CC(=O)NCc1ccc(Cl)c(C(=O)Nc2cccc3c2cnn3-c2ccc(C(F)(F)F)nc2)c1 [Example 173, 2-Chloro-5-{[(3,3-dimethylbutanoyl)amino]methyl}-N-{1-[6-(trifluoromethyl)pyridin-3-yl]-1H-indazol-4-yl}benzamide]	54	86	6.7	
COc1ccc(-n2ncc3c(NC(=O)c4cc(CNC(=O)C5CCCC5)ccc4Cl)cccc32)cn1 [Example 270, 2-Chloro-5-{[(cyclopentylcarbonyl)amino]methyl}-N-[1-(6-methoxypyridin-3-yl)-1H-indazol-4-yl]benzamide]	64	88	3.5	
O=C(Nc1cccc2c1cnn2-c1ccc(C(F)(F)F)cc1)c1cc(CNC(=O)[C@H]2CC[C@@H](O)CC2)ccc1Cl [Example 40, 2-Chloro-5-({[cis-(4-hydroxycyclohexyl)carbonyl]amino}methyl)-N-{1-[4-(trifluoromethyl)phenyl]-1H-indazol-4-yl}benzamide]			60.2	19.1

The remaining compounds from weak to strong by IC50 [2], led by results:

inhibition at 0.01 µM [1] [%]	inhibition at 0.1 µM [1] [%]	IC50 [2] [nM]	IC50 [1] [nM]	Compound
81		10		O=C(Nc1cccc2c1cnn2-c1nccs1)c1cc(CNC(=O)C2CCCC2)ccc1Cl [Example 227, 2-Chloro-5-{[(cyclopentylcarbonyl)amino]methyl}-N-[1-(1,3-thiazol-2-yl)-1H-indazol-4-yl]benzamide]
		6.2	9.5	Cc1ccc(-n2ncc3c(NC(=O)c4cc(CNC(=O)C(C)(C)C)ccc4Cl)cccc32)cn1 [Example 54, 2-Chloro-5-{[(2,2-dimethylpropanoyl)amino]methyl}-N-[1-(6-methylpyridin-3-yl)-1H-indazol-4-yl]benzamide hydrochloride]
73	100	1.8		O=C(Nc1cccc2c1cnn2-c1cccc(OC(F)F)c1)c1cc(CNS(=O)(=O)C2CC2)ccc1Cl [Example 144, 2-Chloro-5-{[(cyclopropylsulfonyl)amino]methyl}-N-{1-[3-(difluoromethoxy)phenyl]-1H-indazol-4-yl}benzamide]
89	85	0.3		COc1ccc(-n2ncc3c(NC(=O)c4cc(CNC(=O)C5(C(F)(F)F)CC5)ccc4Cl)cccc32)cc1C(F)(F)F [Example 263, 2-Chloro-N-{1-[4-methoxy-3-(trifluoromethyl)phenyl]-1H-indazol-4-yl}-5-[({[1-(trifluoromethyl)cyclopropyl]carbonyl}amino)methyl]benzamide]
		0.3	10	Cc1cc(-n2ncc3c(NC(=O)c4cc(CNC(=O)C(C)(C)C)ccc4Cl)cccc32)ccc1OC(F)(F)F [Example 82, 2-Chloro-5-{[(2,2-dimethylpropanoyl)amino]methyl}-N-{1-[3-methyl-4-(trifluoromethoxy)phenyl]-1H-indazol-4-yl}benzamide]
